Among the data in DBAASP are MIC values, retold here.

Values after ≈ are worked out from the molar mass of the structure shown.

Common to all, as to experiment: ≥ marks a high value that may be exact or a test limit, other limits are often not marked, values filed in µg/mL are converted to µM
Assay [1] has as its system Acinetobacter johnsonii NCDC 0072.
Assay [2] relates to Bacillus cereus NCDC 0240.
The subject of assay [3] is Escherichia coli MTCC 0723.
Assay [4] relates to Listeria monocytogenes ATCC 19111.
The test system of assay [5] is Pseudomonas aeruginosa ATCC 27853.
Assay [6] relates to Pseudomonas aeruginosa NCDC 0105.
Assay [7] concerns Salmonella enterica subsp. enterica serovar Typhimurium ATCC 14028.
For assay [8], the system named is Staphylococcus aureus ATCC 29213.
Assay [9] relates to Staphylococcus aureus NCDC 0111.
Assay [10] relates to Bacillus megaterium.
The test system of assay [11] is Candida albicans ATCC 2002.
Assay [12] concerns Escherichia coli ATCC 25922.
In assay [13] the test system is Klebsiella pneumoniae.
Assay [14] deals with Pseudomonas aeruginosa CMCCB 10104.
Assay [15] relates to Shigella dysenteriae.
Assay [16] concerns Staphylococcus aureus ATCC 2592.
Assay [17] relates to Candida glabrata 090902.
The subject of assay [18] is Enterobacter cloacae CGMCC 1.57.
The subject of assay [19] is Enterococcus faecalis 981.
Assay [20] concerns Enterococcus faecium 091299.
Assay [21] concerns Klebsiella pneumoniae 08040724.
Assay [22] has as its system Nocardia asteroides 201118.
Assay [23] has as its system Pseudomonas aeruginosa CGMCC 1.50.
The subject of assay [24] is Psychrobacter faecalis X29.
Assay [25] has as its system Bacillus subtilis A47.
The test system of assay [26] is Escherichia coli 44102.
The test system of assay [27] is Pseudomonas aeruginosa A62.
Assay [28] deals with Staphylococcus aureus 22401.
The test system of assay [29] is Klebsiella pneumoniae DM4299.
In assay [30] the test system is Pseudomonas aeruginosa DM23155.
The subject of assay [31] is Porphyromonas gingivalis ATCC 33277.
Assay [32] has as its system Porphyromonas gingivalis ATCC 53978.
Assay [33] has as its system Escherichia coli K12 MG1655.
The subject of assay [34] is Staphylococcus aureus 68 HER 1049.

For the molecule `CC[C@H](C)[C@H](NC(=O)[C@H](CO)NC(=O)[C@H](Cc1c[nH]c2ccccc12)NC(=O)[C@@H]1CCCN1C(=O)[C@@H](NC(=O)[C@H](C)N)[C@@H](C)CC)C(=O)N[C@@H](Cc1c[nH]c2ccccc12)C(=O)N[C@@H](Cc1c[nH]c2ccccc12)C(=O)N[C@@H](CCCN=C(N)N)C(=O)N[C@@H](CC(C)C)C(=O)N[C@@H](CC(C)C)C(=O)N[C@@H](Cc1ccccc1)C(=O)N[C@@H](CCCCN)C(=O)NCC(=O)O` [AIPWSIWWRLLFKG], the minimal inhibitory concentration (MIC) was ≥ 200 µM in assay [1]; ≥ 100 µM in assay [2]; ≥ 200 µM in assay [3]; 3 µM (≈ 5.32 µg/mL) in assay [4]; 100 µM (≈ 177 µg/mL) in assay [5]; ≥ 50 µM in assay [6]. Moreover, the minimal inhibitory concentration (MIC) in assay [7] came to 0.2 µM (≈ 0.355 µg/mL); in assay [8], 6 µM (≈ 10.6 µg/mL); in [9], 6 µM (≈ 10.6 µg/mL).

As for `CC[C@H](C)[C@H](NC(=O)CN)C(=O)NCC(=O)N[C@H](C(=O)N[C@@H](CCCCN)C(=O)N[C@H](C(=O)N[C@@H](CC(C)C)C(=O)NCC(=O)NCC(=O)N[C@H](C(=O)N[C@@H](CCCCN)C(=O)N[C@H](C(=O)N[C@@H](C)C(=O)N[C@@H](CC(C)C)C(=O)N[C@@H](CCCCN)C(=O)NCC(=O)N[C@@H](C)C(=O)N[C@@H](CC(C)C)C(=O)N[C@@H](CCCCN)C(=O)N[C@@H](CCC(=O)O)C(=O)N[C@@H](CC(C)C)C(=O)N[C@@H](C)C(=O)N[C@@H](CO)C(=O)N[C@H](C(=O)N[C@@H](Cc1ccc(O)cc1)C(=O)N[C@H](C(=O)N[C@@H](CC(N)=O)C(N)=O)C(C)C)[C@@H](C)O)[C@@H](C)O)C(C)C)[C@@H](C)CC)[C@@H](C)O` [GIGTKILGGVKTALKGALKELASTYVN], the MIC is 7.21 µM (≈ 19.5 µg/mL) in assay [10]; 1.11 µM (≈ 3 µg/mL) in assay [11]; 7.21 µM (≈ 19.5 µg/mL) in assay [12]; 3.33 µM (≈ 9 µg/mL) in assay [13]; 7.21 µM (≈ 19.5 µg/mL) in assay [14]; 0.999 µM (≈ 2.7 µg/mL) in assay [15]. This molecule also yielded a minimal inhibitory concentration (MIC) in [16] of 7.21 µM (≈ 19.5 µg/mL).

For the molecule `CC[C@H](C)[C@H](NC(=O)CN)C(=O)N[C@@H](CC(C)C)C(=O)N[C@@H](CC(=O)O)C(=O)N[C@H](C(=O)N[C@@H](CC(C)C)C(=O)N[C@@H](CCCCN)C(=O)N[C@@H](CCC(N)=O)C(=O)N[C@@H](CC(C)C)C(=O)NCC(=O)N[C@@H](CCCCN)C(=O)N[C@@H](C)C(=O)N[C@@H](C)C(=O)N[C@@H](C)C(=O)N[C@@H](CCC(N)=O)C(=O)N[C@@H](CO)C(=O)N[C@@H](CC(C)C)C(=O)N[C@@H](CC(C)C)C(=O)N[C@@H](CO)C(=O)N[C@@H](CCCCN)C(=O)N[C@@H](C)C(=O)N[C@@H](C)C(=O)N[C@H]1CSSC[C@@H](C(=O)O)NC(=O)[C@H]([C@@H](C)O)NC(=O)[C@H](CCCCN)NC(=O)[C@H](C)NC(=O)[C@H](CC(C)C)NC(=O)[C@H](CCCCN)NC1=O)[C@@H](C)O` [GILDTLKQLGKAAAQSLLSKAACKLAKTC], the minimal inhibitory concentration (MIC) in [17] was ≥ 50 µM; in [18], ≥ 50 µM; in assay [19], ≥ 50 µM; in [20], 6.3 µM (≈ 18.5 µg/mL); in assay [12] it was 50 µM (≈ 147 µg/mL); in assay [21], ≥ 100 µM. The minimum inhibitory concentration (MIC) in assay [22] was 6.3 µM (≈ 18.5 µg/mL); in assay [23], ≥ 50 µM; in assay [24] it was 3.1 µM (≈ 9.13 µg/mL).

For the molecule `CC[C@H](C)[C@H](N)C(=O)N[C@@H](CC(C)C)C(=O)N1CCC[C@H]1C(=O)N[C@H](C(=O)N[C@H](C(=O)NCC(=O)N[C@@H](CCCCN)C(=O)N[C@H](C(=O)N[C@@H](CC(C)C)C(=O)N[C@@H](CO)C(=O)N[C@H](C(=O)N[C@H](C(=O)N[C@@H](Cc1ccccc1)C(=O)NCC(=O)N[C@@H](CCCCN)C(=O)O)[C@@H](C)CC)[C@@H](C)O)[C@@H](C)CC)[C@@H](C)CC)[C@@H](C)CC` [ILPIIGKILSTIFGK], the minimal inhibitory concentration (MIC) was 25 µM (≈ 40.3 µg/mL) in assay [25], ≥ 50 µM in assay [26], 12.5 µM (≈ 20.2 µg/mL) in assay [27] and 6.25 µM (≈ 10.1 µg/mL) in assay [28].

For `CC(=O)N[C@@H](CCCN=C(N)N)C(=O)NCC(=O)N[C@@H](CCCN=C(N)N)C(=O)N[C@@H](CCCCN)C(=O)NCC(=O)NCC(=O)N[C@@H](CCCN=C(N)N)C(=O)N[C@@H](CCCN=C(N)N)C(=O)N[C@@H](CCCCN)C(=O)N[C@@H](CCCCN)C(=O)O` [RGRKGGRRKK], the minimum inhibitory concentration (MIC) in assay [12] stood at 1.5 µM (≈ 1.86 µg/mL); in assay [29] it was 3 µM (≈ 3.72 µg/mL); in assay [30] it was 6 µM (≈ 7.44 µg/mL).

As for `CC[C@H](C)[C@H](NC(=O)CNC(=O)[C@H](CCC(=O)O)NC(=O)CNC(=O)[C@H](C)NC(=O)CNC(=O)[C@H](Cc1cnc[nH]1)NC(=O)[C@@H]1CCCN1C(=O)[C@@H](N)CCCN=C(N)N)C(=O)N[C@@H](CC(=O)O)C(=O)N[C@@H](CCCN=C(N)N)C(=O)N[C@H](C(=O)N1CCC[C@H]1C(=O)N[C@@H](C)C(=O)NCC(=O)N1CCC[C@H]1C(=O)N[C@@H](CO)C(=O)N1CCC[C@H]1C(=O)N[C@@H](CO)C(=O)N[C@@H](CCC(=O)O)C(=O)N[C@H](C(=O)NCC(=O)N[C@@H](CC(C)C)C(=O)N[C@@H](C)C(=O)N[C@H](C(=O)N1CCC[C@H]1C(=O)N[C@@H](CO)C(=O)NCC(=O)N[C@@H](CCCCN)C(=O)O)[C@@H](C)CC)C(C)C)C(C)C` [RPHGAGEGIDRVPAGPSPSEVGLAIPSGK], the minimal inhibitory concentration (MIC) in [31] and in assay [32] was 1.7 µM (≈ 4.78 µg/mL) throughout.

For the molecule `CC[C@H](C)[C@H](NC(=O)[C@H](CCCN=C(N)N)NC(=O)[C@H](CCCN=C(N)N)NC(=O)[C@H](CC(C)C)NC(=O)[C@H](CCCCN)NC(=O)[C@H](CCCCN)NC(=O)[C@H](Cc1c[nH]c2ccccc12)NC(=O)[C@H](CCCN=C(N)N)NC(=O)[C@H](CCCCN)NC(=O)[C@H](Cc1c[nH]c2ccccc12)NC(=O)[C@@H](N)Cc1c[nH]c2ccccc12)C(=O)N[C@@H](Cc1ccccc1)C(=O)N[C@@H](CC(C)C)C(=O)N[C@@H](CCSC)C(=O)N[C@@H](CC(C)C)C(=O)O` [WWKRWKKLRRIFLML], the minimal inhibitory concentration (MIC) in assay [33] and in assay [34] was 1.85 µM (≈ 4 µg/mL) each time.
